pIC50: −log10 of the molar value.
How the values were obtained:
[1] = molecular target: intracellular phosphorylation of EGFR (Tyr1068) in PC-9 cells (Homo sapiens, UniProt P00533, DEL746-750); experiment: PC-9 pEGFR AlphaLISA assay; format: cell-based; conditions: 4 hours incubation, read-out: Phos EGFR PC9 IC50
Procedure, shortened: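 PC-9 cells (EGFR del746-750) in phenol-free DMEM/10% FBS, adhered overnight, then exposed to 10-point 4-fold compound dilutions for 4 h at 37 °C. Lysates assayed for pEGFR Tyr1068 by AlphaLISA SureFire Ultra; IC50 from percent pEGFR inhibition vs log concentration.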

[2] = molecular target: T1, EGFR (d746-750) (Homo sapiens, UniProt P00533, DEL746-750); experiment: Biochemical EGFR inhibition assay (Caliper mobility shift), EGFR (d746-750); conditions: biochemical Caliper mobility shift assay, EGFR Exon 19-del enzyme; read-out: Enz EGFR Exon 19-del IC50
T1 construct: purchased SignalChem E10-122JG
T1 sequence (P00533 with tags, fused parts or gaps DEL746-750 limits assumed): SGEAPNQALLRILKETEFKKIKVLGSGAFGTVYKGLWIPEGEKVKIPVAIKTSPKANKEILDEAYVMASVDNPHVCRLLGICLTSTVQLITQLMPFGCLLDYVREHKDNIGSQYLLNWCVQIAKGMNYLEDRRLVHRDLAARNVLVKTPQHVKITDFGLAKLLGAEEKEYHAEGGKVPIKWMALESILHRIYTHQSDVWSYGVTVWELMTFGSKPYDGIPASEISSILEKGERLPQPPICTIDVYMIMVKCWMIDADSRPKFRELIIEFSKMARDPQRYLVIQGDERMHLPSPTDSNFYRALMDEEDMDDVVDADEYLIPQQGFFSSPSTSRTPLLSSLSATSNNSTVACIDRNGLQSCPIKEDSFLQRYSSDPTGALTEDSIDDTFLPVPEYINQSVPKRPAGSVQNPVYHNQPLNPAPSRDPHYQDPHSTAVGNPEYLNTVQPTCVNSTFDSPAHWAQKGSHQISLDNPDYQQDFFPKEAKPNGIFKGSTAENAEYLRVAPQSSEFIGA
Procedure, shortened: (§1)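 Apparent IC50 from Caliper separation of phospho-peptide from substrate. Conditions: 2.5 µM 5-FAM peptide, 1.0 mM ATP or ATP Km, pH 7.5 HEPES buffer, room temperature, 10–20% conversion, EDTA stop.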

[3] = molecular target: T2, EGFR L858R (Homo sapiens, UniProt P00533, L858R); experiment: Biochemical EGFR inhibition assay (Caliper mobility shift), EGFR L858R; conditions: biochemical Caliper mobility shift assay, EGFR L858R enzyme; read-out: Enz EGFR L858R IC50
T2 construct: purchased SignalChem E10-122BG
T2 sequence (P00533 25-1210 L858R): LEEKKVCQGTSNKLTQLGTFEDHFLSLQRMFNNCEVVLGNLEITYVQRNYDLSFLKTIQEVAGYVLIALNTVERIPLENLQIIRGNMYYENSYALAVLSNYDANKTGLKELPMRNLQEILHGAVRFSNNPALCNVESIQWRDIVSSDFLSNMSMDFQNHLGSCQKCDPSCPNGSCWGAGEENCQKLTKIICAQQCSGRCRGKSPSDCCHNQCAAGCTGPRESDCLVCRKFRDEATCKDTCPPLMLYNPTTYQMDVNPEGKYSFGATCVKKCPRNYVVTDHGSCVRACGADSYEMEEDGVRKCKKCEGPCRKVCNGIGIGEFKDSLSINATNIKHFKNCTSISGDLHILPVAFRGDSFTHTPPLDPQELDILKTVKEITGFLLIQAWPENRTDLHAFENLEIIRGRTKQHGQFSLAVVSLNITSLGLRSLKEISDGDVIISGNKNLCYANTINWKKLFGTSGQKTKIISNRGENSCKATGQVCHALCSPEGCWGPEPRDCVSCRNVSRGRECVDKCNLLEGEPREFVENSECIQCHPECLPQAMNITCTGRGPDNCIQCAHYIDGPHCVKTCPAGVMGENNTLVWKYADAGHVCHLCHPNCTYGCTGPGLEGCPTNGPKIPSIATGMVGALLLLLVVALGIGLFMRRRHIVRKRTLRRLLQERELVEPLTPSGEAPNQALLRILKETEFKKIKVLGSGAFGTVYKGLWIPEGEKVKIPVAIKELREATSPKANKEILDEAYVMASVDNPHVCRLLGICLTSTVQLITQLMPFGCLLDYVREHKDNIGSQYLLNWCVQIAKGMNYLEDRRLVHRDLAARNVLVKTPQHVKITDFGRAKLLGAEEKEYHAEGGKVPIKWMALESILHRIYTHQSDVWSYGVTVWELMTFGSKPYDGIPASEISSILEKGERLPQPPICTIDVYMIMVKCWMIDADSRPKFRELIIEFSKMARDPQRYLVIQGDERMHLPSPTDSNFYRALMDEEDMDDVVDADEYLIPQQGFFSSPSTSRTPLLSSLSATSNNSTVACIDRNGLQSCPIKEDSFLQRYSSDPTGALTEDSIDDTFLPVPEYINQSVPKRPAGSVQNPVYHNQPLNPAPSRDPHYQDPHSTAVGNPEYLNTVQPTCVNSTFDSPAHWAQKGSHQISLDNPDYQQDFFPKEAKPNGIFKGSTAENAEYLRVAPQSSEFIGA
Procedure, shortened: as §1

Chain of intracellular phosphorylation of EGFR (Tyr1068) in PC-9 cells (P00533 with tags, fused parts or gaps DEL746-750): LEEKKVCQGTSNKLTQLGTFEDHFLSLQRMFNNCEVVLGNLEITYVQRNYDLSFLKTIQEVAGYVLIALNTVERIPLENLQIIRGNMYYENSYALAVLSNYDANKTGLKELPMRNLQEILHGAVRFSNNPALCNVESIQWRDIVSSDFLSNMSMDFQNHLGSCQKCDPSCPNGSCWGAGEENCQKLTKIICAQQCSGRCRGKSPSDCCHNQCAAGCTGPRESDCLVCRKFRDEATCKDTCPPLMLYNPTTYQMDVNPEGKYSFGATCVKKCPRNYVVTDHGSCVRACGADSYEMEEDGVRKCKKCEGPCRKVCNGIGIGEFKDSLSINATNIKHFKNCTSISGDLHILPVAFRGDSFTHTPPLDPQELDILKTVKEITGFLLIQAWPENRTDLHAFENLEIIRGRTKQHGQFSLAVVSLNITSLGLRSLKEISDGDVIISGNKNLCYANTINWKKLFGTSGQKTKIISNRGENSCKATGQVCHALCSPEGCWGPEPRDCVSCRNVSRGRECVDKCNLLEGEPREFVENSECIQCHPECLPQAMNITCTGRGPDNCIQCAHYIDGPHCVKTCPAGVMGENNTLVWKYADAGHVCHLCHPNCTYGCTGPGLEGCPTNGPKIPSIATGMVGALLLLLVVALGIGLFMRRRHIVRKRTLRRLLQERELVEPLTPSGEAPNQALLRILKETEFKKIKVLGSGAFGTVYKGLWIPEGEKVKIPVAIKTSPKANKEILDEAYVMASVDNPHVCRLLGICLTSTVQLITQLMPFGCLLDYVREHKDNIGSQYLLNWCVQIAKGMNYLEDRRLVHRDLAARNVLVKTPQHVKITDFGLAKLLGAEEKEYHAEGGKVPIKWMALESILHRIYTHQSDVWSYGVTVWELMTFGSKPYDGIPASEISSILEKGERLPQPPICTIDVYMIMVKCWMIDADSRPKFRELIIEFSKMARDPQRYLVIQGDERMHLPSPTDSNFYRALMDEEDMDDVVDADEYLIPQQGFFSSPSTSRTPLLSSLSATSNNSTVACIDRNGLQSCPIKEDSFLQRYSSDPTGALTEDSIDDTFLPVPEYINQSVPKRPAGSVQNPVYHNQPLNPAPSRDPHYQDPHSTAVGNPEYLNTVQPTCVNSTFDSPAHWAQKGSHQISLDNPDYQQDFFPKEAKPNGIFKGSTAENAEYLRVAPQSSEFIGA

| pIC50 [1] | pIC50 [2] | pIC50 [3] | SMILES |
| --- | --- | --- | --- |
| 7.30 to 8.00 | ≥ 8.00 | ≥ 8.00 | Cn1cc(-c2cc(OC3CCN(CCO)CC3)c3c(Nc4ccc5ncsc5c4)ncnc3c2)cn1 [Example 312, 2-(4-((4-(benzo[d]thiazol-6-ylamino)-7-(1-methyl-1H-pyrazol-4-yl)quinazolin-5-yl)oxy)piperidin-1-yl)ethan-1-ol] |
| 7.30 to 8.00 | ≥ 8.00 | ≥ 8.00 | COCCN1CCC(Oc2cc(-c3cnn(C)c3)cc3ncnc(Nc4ccc5ncsc5c4)c23)CC1 [Example 313, N-(5-((1-(2-methoxyethyl)piperidin-4-yl)oxy)-7-(1-methyl-1H-pyrazol-4-yl)quinazolin-4-yl)benzo[d]thiazol-6-amine] |
| ≥ 8.00 | ≥ 8.00 | ≥ 8.00 | COc1cn(C)nc1-c1cc(OC2CCN(C)CC2)c2c(Nc3ccc4ncsc4c3)ncnc2c1 [Example 314, N-(7-(4-methoxy-1-methyl-1H-pyrazol-3-yl)-5-((1-methylpiperidin-4-yl)oxy)quinazolin-4-yl)benzo[d]thiazol-6-amine] |
| 7.30 to 8.00 | ≥ 8.00 | ≥ 8.00 | COc1nn(C)cc1-c1cc(OC2CCN(C)CC2)c2c(Nc3ccc4ncsc4c3F)ncnc2c1 [Example 320, 7-fluoro-N-(7-(3-methoxy-1-methyl-1H-pyrazol-4-yl)-5-((1-methylpiperidin-4-yl)oxy)quinazolin-4-yl)benzo[d]thiazol-6-amine] |
| ≥ 8.00 | ≥ 8.00 | ≥ 8.00 | COc1nn(C)cc1-c1cc(O[C@@H]2CCNC[C@H]2F)c2c(Nc3ccc4ncsc4c3F)ncnc2c1 [Example 350, 7-fluoro-N-(5-(((3R,4R)-3-fluoropiperidin-4-yl)oxy)-7-(3-methoxy-1-methyl-1H-pyrazol-4-yl)quinazolin-4-yl)benzo[d]thiazol-6-amine] |
| ≥ 8.00 | ≥ 8.00 | ≥ 8.00 | COc1nn(C)cc1-c1cc(O[C@@H]2CCN(C)C[C@H]2F)c2c(Nc3ccc4ncsc4c3F)ncnc2c1 [Example 351, 7-fluoro-N-(5-(((3R,4R)-3-fluoro-1-methylpiperidin-4-yl)oxy)-7-(3-methoxy-1-methyl-1H-pyrazol-4-yl)quinazolin-4-yl)benzo[d]thiazol-6-amine] |
| ≥ 8.00 | ≥ 8.00 | ≥ 8.00 | CN1CCC2(COC2)C(Oc2cc(-c3cnn(C)c3)cc3ncnc(Nc4ccc5ncsc5c4)c23)C1 (stereo not drawn) [Example 352, N-(7-(1-methyl-1H-pyrazol-4-yl)-5-((7-methyl-2-oxa-7-azaspiro[3.5]nonan-5-yl)oxy)quinazolin-4-yl)benzo[d]thiazol-6-amine] |
| ≥ 8.00 | ≥ 8.00 | ≥ 8.00 | COc1nn(C)cc1-c1cc(O[C@@H]2CCNC[C@@H]2F)c2c(Nc3ccc4ncsc4c3)ncnc2c1 [Example 363, N-(5-(((3S,4R)-3-fluoropiperidin-4-yl)oxy)-7-(3-methoxy-1-methyl-1H-pyrazol-4-yl)quinazolin-4-yl)benzo[d]thiazol-6-amine] |
| 7.30 to 8.00 | ≥ 8.00 | 7.30 to 8.00 | CN1CC[C@H](Oc2cc(-c3cn(C)nc3OC(F)F)cc3ncnc(Nc4ccc5ncsc5c4)c23)[C@H](F)C1 [Example 367, N-(7-(3-(difluoromethoxy)-1-methyl-1H-pyrazol-4-yl)-5-(((3R,4S)-3-fluoro-1-methylpiperidin-4-yl)oxy)quinazolin-4-yl)benzo[d]thiazol-6-amine] |
| 7.30 to 8.00 | ≥ 8.00 | ≥ 8.00 | CN1C[C@H](Oc2cc(-c3cnn(C)c3)cc3ncnc(Nc4ccc5ncsc5c4)c23)[C@@H](F)C1 [Example 383, N-(5-(((3S,4S)-4-fluoro-1-methylpyrrolidin-3-yl)oxy)-7-(1-methyl-1H-pyrazol-4-yl)quinazolin-4-yl)benzo[d]thiazol-6-amine] |

Continued, compound first:

| SMILES | pIC50 [1] | pIC50 [2] | pIC50 [3] |
| --- | --- | --- | --- |
| Cn1cc(-c2cc(OC3CCN(CC(F)F)CC3)c3c(Nc4ccc5ncsc5c4)ncnc3c2)cn1 [Example 311, N-(5-((1-(2,2-difluoroethyl)piperidin-4-yl)oxy)-7-(1-methyl-1H-pyrazol-4-yl)quinazolin-4-yl)benzo[d]thiazol-6-amine] | ≥ 8.00 | ≥ 8.00 | ≥ 8.00 |
| Cn1cc(-c2cc(OC3CCN(C4COC4)CC3)c3c(Nc4ccc5ncsc5c4F)ncnc3c2)cn1 [Example 315, 7-fluoro-N-(7-(1-methyl-1H-pyrazol-4-yl)-5-((1-(oxetan-3-yl)piperidin-4-yl)oxy)quinazolin-4-yl)benzo[d]thiazol-6-amine] | ≥ 8.00 | ≥ 8.00 | ≥ 8.00 |
| COCCN1CCC(Oc2cc(-c3cnn(C)c3)cc3ncnc(Nc4ccc5ncsc5c4F)c23)CC1 [Example 316, 7-fluoro-N-(5-((1-(2-methoxyethyl)piperidin-4-yl)oxy)-7-(1-methyl-1H-pyrazol-4-yl)quinazolin-4-yl)benzo[d]thiazol-6-amine] | 7.30 to 8.00 | ≥ 8.00 | 7.30 to 8.00 |
| Cn1cc(-c2cc(O[C@H]3CCCN(C4COC4)C3)c3c(Nc4ccc5ncsc5c4)ncnc3c2)cn1 [Example 317, (S)-N-(7-(1-methyl-1H-pyrazol-4-yl)-5-((1-(oxetan-3-yl)piperidin-3-yl)oxy)quinazolin-4-yl)benzo[d]thiazol-6-amine] | ≥ 8.00 | ≥ 8.00 | ≥ 8.00 |
| Cn1cc(-c2cc(OC3CCN(C4COC4)CC3)c3c(Nc4ccc5ncsc5c4)ncnc3c2)cn1 [Example 318, N-(7-(1-methyl-1H-pyrazol-4-yl)-5-((1-(oxetan-3-yl)piperidin-4-yl)oxy)quinazolin-4-yl)benzo[d]thiazol-6-amine] | ≥ 8.00 | ≥ 8.00 | ≥ 8.00 |
| COc1cn(C)nc1-c1cc(OC2CCN(C)CC2)c2c(Nc3ccc4ncsc4c3F)ncnc2c1 [Example 319, 7-fluoro-N-(7-(4-methoxy-1-methyl-1H-pyrazol-3-yl)-5-((1-methylpiperidin-4-yl)oxy)quinazolin-4-yl)benzo[d]thiazol-6-amine] | ≥ 8.00 | ≥ 8.00 | 7.30 to 8.00 |
| Cn1cc(-c2cc(O[C@@H]3CCNC[C@H]3F)c3c(Nc4ccc5ncsc5c4F)ncnc3c2)cn1 [Example 348, 7-fluoro-N-(5-(((3R,4R)-3-fluoropiperidin-4-yl)oxy)-7-(1-methyl-1H-pyrazol-4-yl)quinazolin-4-yl)benzo[d]thiazol-6-amine] | ≥ 8.00 | ≥ 8.00 | ≥ 8.00 |
| CN1CC[C@@H](Oc2cc(-c3cnn(C)c3)cc3ncnc(Nc4ccc5ncsc5c4F)c23)[C@H](F)C1 [Example 349, 7-fluoro-N-(5-(((3R,4R)-3-fluoro-1-methylpiperidin-4-yl)oxy)-7-(1-methyl-1H-pyrazol-4-yl)quinazolin-4-yl)benzo[d]thiazol-6-amine] | ≥ 8.00 | ≥ 8.00 | ≥ 8.00 |
| CN1CCC(n2cc(-c3cc4ncnc(Nc5ccc6ncsc6c5F)c4cc3F)cn2)CC1 [Example 356, 7-fluoro-N-(6-fluoro-7-(1-(1-methylpiperidin-4-yl)-1H-pyrazol-4-yl)quinazolin-4-yl)benzo[d]thiazol-6-amine] | ≥ 8.00 | ≥ 8.00 | ≥ 8.00 |
| COc1nn(C)cc1-c1cc(O[C@@H]2CCN(C)C[C@@H]2F)c2c(Nc3ccc4ncsc4c3)ncnc2c1 [Example 362, N-(5-(((3S,4R)-3-fluoro-1-methylpiperidin-4-yl)oxy)-7-(3-methoxy-1-methyl-1H-pyrazol-4-yl)quinazolin-4-yl)benzo[d]thiazol-6-amine] | ≥ 8.00 | ≥ 8.00 | ≥ 8.00 |
| COc1nn(C)cc1-c1cc(O[C@H]2CCN(C)C[C@H]2F)c2c(Nc3ccc4ncsc4c3)ncnc2c1 [Example 364, N-(5-(((3R,4S)-3-fluoro-1-methylpiperidin-4-yl)oxy)-7-(3-methoxy-1-methyl-1H-pyrazol-4-yl)quinazolin-4-yl)benzo[d]thiazol-6-amine] | ≥ 8.00 | ≥ 8.00 | ≥ 8.00 |
| COc1nn(C)cc1-c1cc(O[C@H]2CCNC[C@H]2F)c2c(Nc3ccc4ncsc4c3)ncnc2c1 [Example 365, N-(5-(((3R,4S)-3-fluoropiperidin-4-yl)oxy)-7-(3-methoxy-1-methyl-1H-pyrazol-4-yl)quinazolin-4-yl)benzo[d]thiazol-6-amine] | ≥ 8.00 | ≥ 8.00 | ≥ 8.00 |
| Cn1cc(-c2cc(O[C@H]3CCNC[C@H]3F)c3c(Nc4ccc5ncsc5c4)ncnc3c2)c(OC(F)F)n1 [Example 366, N-(7-(3-(difluoromethoxy)-1-methyl-1H-pyrazol-4-yl)-5-(((3R,4S)-3-fluoropiperidin-4-yl)oxy)quinazolin-4-yl)benzo[d]thiazol-6-amine] | ≥ 8.00 | ≥ 8.00 | 7.30 to 8.00 |
| Cn1cc(-c2cc(O[C@H]3CNC[C@@H]3F)c3c(Nc4ccc5ncsc5c4)ncnc3c2)cn1 [Example 382, N-(5-(((3S,4S)-4-fluoropyrrolidin-3-yl)oxy)-7-(1-methyl-1H-pyrazol-4-yl)quinazolin-4-yl)benzo[d]thiazol-6-amine] | < 7.30 | ≥ 8.00 | 7.30 to 8.00 |
